The values that follow are results of earlier work, collected in patent publication US20150038674A1, “USE OF GLP-2 ANALOGUES IN PULMONARY DISEASES FOR THERAPEUTIC PURPOSE” (priority 2013, published 2015).

The data set deals with patients with short bowel syndrome. The following applies: 11 patients with short bowel syndrome, s.c. 0.4 mg 3 times a day, 13, 26, 52 weeks; cited from earlier work.

As for “human GLP-2: Human glucagon like peptide 2, 33 amino acid sequence (SEQUENCE ID No. 1) (HADGSFSDEMNTILDNLAARDFINWLIQTKIT; listed as Homo sapiens)”, the “intestinal morphology, absorption, renal functions, bone mineral density and muscle functions” value is on record as “does not change”.
